These results are taken from patent publication US12415844B2, “BCMA specific VCAR compositions and methods for use” (Poseida Therapeutics, Inc., priority 2017, dated 2025).

In series [1] the test system is cells. The note with it: cited from earlier work.
Series [2] concerns cells. The series is described as follows: AP1903 amount needed in vitro for effective signaling of cells. In kind it is cell-based. The following applies: equates to 10-100 nM. The procedure:
The fixed dose of AP1903 for injection used, for example, may be 0.4 mg/kg intravenously infused over 2 hours. The amount of AP1903 needed in vitro for effective signaling of cells is 10-100 nM (1600 Da MW). This equates to […] or […]. Doses up to 1 mg/kg were well tolerated in the Phase I study of AP1903 described above. Therefore, 0.4 mg/kg may be a safe and effective dose of AP1903 for this Phase I study in combination with the therapeutic cells.

For series [3] the following is noted: cited from earlier work.

Like-named read-outs stand apart in the source and are kept apart here.

Take `CC[C@H](C(=O)N1CCCC[C@H]1C(=O)O[C@H](CCc1ccc(OC)c(OC)c1)c1cccc(OCC(=O)NCCNC(=O)COc2cccc([C@@H](CCc3ccc(OC)c(OC)c3)OC(=O)[C@@H]3CCCCN3C(=O)[C@@H](CC)c3cc(OC)c(OC)c(OC)c3)c2)c1)c1cc(OC)c(OC)c(OC)c1` (relative stereo) [AP1903, 2-Piperidinecarboxylic acid, 1-[(2S)-1-oxo-2-(3,4,5-trimethoxyphenyl)butyl]-, 1,2-ethanediylbis[imino(2-oxo-2,1-ethanediyl)oxy-3,1-phenylene[(1R)-3-(3,4-dimethoxyphenyl)propylidene]]ester, [2S-[1(R*),2R*[S*[S*[1(R*),2R*]]]]]-(9C1)]: the “amount needed in vitro for effective signaling of cells” value in the series with cells [1] is 10 to 100 nM. Also, the amount needed for effective signaling, converted (1600 Da MW) in the series on cells [2] is 16 to 160 µg/L. Moreover, the “plasma levels versus dose” value in series [3] (0.01-1.0 mg/kg) is “directly proportional to dose”. For the same compound, the “plasma level as % of maximal concentration” value in series [3] (0.5 hours post-dose) is recorded as “approximately 18%”; in series [3] (2 hours post-dose) it was approximately 7%; in series [3] (10 hours post-dose), approximately 1%. Further, the well tolerated doses entry in series [3] (Phase I study) is reported as “up to 1 mg/kg”. Besides, in series [3] (dose levels 0.01, 0.05, 0.1, 0.5 and 1.0 mg/kg IV over 2 hours), the safety and tolerability entry is “safe and well tolerated at all dose levels”. Besides, the pharmacokinetic profile result in series [3] (healthy volunteers) is listed as “favorable pharmacokinetic profile”. The “mean Cmax” value in series [3] (single doses 0.01-1.0 mg/kg infused IV over 2 hours, healthy volunteers, plasma) is 10 to 1275 ng/mL.
